Biological target: T1, Alpha-2A adrenergic receptor (Homo sapiens, UniProt P08913); note: in other assays of this panel Not Active means under 50% inhibition at 10 µM
T1 sequence (P08913 whole entry): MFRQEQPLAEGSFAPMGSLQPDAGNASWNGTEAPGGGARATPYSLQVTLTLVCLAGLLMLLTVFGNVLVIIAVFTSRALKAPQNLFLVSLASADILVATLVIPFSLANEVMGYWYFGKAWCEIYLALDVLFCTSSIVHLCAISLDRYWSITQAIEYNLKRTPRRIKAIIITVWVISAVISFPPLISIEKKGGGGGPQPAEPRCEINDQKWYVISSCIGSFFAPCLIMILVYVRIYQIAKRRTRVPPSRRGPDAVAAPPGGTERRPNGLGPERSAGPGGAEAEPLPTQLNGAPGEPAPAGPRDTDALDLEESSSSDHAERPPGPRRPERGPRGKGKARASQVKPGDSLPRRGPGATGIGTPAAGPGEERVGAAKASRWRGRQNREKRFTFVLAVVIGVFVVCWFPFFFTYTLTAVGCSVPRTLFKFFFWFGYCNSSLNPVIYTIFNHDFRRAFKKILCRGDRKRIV
Assay type: cell membranes, Sf9, Membrane
Settings: read-out: IC50

SMILES | IC50 [nM]
CN1CCN(C(c2ccccc2)c2ccccc2)CC1 [CYCLIZINE] | 1550
CC(C)C[C@H]1C(=O)N2CCC[C@H]2[C@]2(O)O[C@](NC(=O)[C@@H]3C=C4c5cccc6[nH]cc(c56)C[C@H]4N(C)C3)(C(C)C)C(=O)N12 [ERGOCRYPTINE] | 7.95

Same assay, conditions: read-out: Ki

SMILES | Ki [nM]
CN1CCN(C(c2ccccc2)c2ccccc2)CC1 [CYCLIZINE] | 582
CC(C)C[C@H]1C(=O)N2CCC[C@H]2[C@]2(O)O[C@](NC(=O)[C@@H]3C=C4c5cccc6[nH]cc(c56)C[C@H]4N(C)C3)(C(C)C)C(=O)N12 [ERGOCRYPTINE] | 2.98

Same assay, conditions: sf9

SMILES | IC50
ClC(Cl)(Cl)Cl [CARBON TETRACHLORIDE] | Not Active
CO/N=C(\C(=O)N[C@@H]1C(=O)N2C(C(=O)O)=C(COC(C)=O)CS[C@H]12)c1csc(N)n1 [CEFOTAXIME] | Not Active
CNC1=Nc2ccc(Cl)cc2C(c2ccccc2)=[N+]([O-])C1 [CHLORDIAZEPOXIDE] | Not Active
Cc1cc(O)cc(C)c1Cl [CHLOROXYLENOL] | Not Active
CCCNC(=O)NS(=O)(=O)c1ccc(Cl)cc1 [CHLORPROPAMIDE] | Not Active

Biological target: Beta-1 adrenergic receptor (Homo sapiens, UniProt P08588)
Sequence (P08588 whole entry): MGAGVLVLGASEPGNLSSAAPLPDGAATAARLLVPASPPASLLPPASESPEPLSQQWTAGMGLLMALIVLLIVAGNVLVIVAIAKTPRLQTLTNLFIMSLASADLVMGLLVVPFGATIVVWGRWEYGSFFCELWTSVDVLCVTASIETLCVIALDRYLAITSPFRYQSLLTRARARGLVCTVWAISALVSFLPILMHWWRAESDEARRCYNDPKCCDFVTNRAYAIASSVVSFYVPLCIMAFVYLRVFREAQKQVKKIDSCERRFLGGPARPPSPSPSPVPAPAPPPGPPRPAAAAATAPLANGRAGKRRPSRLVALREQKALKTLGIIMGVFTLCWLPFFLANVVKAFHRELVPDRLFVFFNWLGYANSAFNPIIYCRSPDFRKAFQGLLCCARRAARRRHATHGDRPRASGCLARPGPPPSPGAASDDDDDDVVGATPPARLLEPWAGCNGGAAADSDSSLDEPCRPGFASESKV
Test: DRUGMATRIX: Adrenergic beta1 radioligand binding (ligand: [125I] Cyanopindolol)
Assay type: cell membranes, CHO-K1, Membrane
Settings: cho-k1; Not Active = under 50% inhibition at 10 µM

SMILES | IC50
ClC(Cl)(Cl)Cl [CARBON TETRACHLORIDE] | Not Active
CO/N=C(\C(=O)N[C@@H]1C(=O)N2C(C(=O)O)=C(COC(C)=O)CS[C@H]12)c1csc(N)n1 [CEFOTAXIME] | Not Active
CNC1=Nc2ccc(Cl)cc2C(c2ccccc2)=[N+]([O-])C1 [CHLORDIAZEPOXIDE] | Not Active
Cc1cc(O)cc(C)c1Cl [CHLOROXYLENOL] | Not Active
CCCNC(=O)NS(=O)(=O)c1ccc(Cl)cc1 [CHLORPROPAMIDE] | Not Active
CN1CCN(C(c2ccccc2)c2ccccc2)CC1 [CYCLIZINE] | Not Active
CC(C)C[C@H]1C(=O)N2CCC[C@H]2[C@]2(O)O[C@](NC(=O)[C@@H]3C=C4c5cccc6[nH]cc(c56)C[C@H]4N(C)C3)(C(C)C)C(=O)N12 [ERGOCRYPTINE] | Not Active

Biological target: C-C chemokine receptor type 2 (Homo sapiens, UniProt P41597); note: in other assays of this panel Not Active means under 50% inhibition at 10 µM
Sequence (P41597 whole entry): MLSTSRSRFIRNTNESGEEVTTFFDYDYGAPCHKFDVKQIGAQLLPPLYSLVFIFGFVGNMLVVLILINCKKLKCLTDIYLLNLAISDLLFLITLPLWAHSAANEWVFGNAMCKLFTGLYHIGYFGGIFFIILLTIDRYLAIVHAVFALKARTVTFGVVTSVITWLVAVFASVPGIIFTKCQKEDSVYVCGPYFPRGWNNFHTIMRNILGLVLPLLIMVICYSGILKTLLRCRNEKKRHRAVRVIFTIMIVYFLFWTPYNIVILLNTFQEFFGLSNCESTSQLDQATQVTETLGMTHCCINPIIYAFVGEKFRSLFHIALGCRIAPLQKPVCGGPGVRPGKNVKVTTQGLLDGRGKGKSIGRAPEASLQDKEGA
Assay type: cell membranes, Membrane
Settings: cho-k1

SMILES | IC50
ClC(Cl)(Cl)Cl [CARBON TETRACHLORIDE] | Not Active
CO/N=C(\C(=O)N[C@@H]1C(=O)N2C(C(=O)O)=C(COC(C)=O)CS[C@H]12)c1csc(N)n1 [CEFOTAXIME] | Not Active
CNC1=Nc2ccc(Cl)cc2C(c2ccccc2)=[N+]([O-])C1 [CHLORDIAZEPOXIDE] | Not Active
Cc1cc(O)cc(C)c1Cl [CHLOROXYLENOL] | Not Active
CCCNC(=O)NS(=O)(=O)c1ccc(Cl)cc1 [CHLORPROPAMIDE] | Not Active
CN1CCN(C(c2ccccc2)c2ccccc2)CC1 [CYCLIZINE] | Not Active
CC(C)C[C@H]1C(=O)N2CCC[C@H]2[C@]2(O)O[C@](NC(=O)[C@@H]3C=C4c5cccc6[nH]cc(c56)C[C@H]4N(C)C3)(C(C)C)C(=O)N12 [ERGOCRYPTINE] | Not Active

Biological target: T2, Muscarinic acetylcholine receptor M5 (Homo sapiens, UniProt P08912); note: in other assays of this panel Not Active means under 50% inhibition at 10 µM
T2 sequence (P08912 whole entry): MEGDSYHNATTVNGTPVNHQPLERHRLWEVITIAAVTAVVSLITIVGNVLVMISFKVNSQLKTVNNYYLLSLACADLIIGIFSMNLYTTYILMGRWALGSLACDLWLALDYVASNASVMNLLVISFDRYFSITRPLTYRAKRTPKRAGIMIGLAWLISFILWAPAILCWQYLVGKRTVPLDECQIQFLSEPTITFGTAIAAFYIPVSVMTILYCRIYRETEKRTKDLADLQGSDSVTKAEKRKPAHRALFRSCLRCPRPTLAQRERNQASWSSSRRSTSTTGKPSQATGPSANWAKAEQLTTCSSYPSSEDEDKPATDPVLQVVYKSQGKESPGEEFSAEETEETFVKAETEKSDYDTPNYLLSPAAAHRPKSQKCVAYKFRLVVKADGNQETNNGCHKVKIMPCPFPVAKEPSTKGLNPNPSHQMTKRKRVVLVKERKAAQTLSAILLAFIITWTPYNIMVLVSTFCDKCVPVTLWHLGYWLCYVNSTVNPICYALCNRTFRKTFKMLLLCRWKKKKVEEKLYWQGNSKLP
Assay type: cell membranes, CHO-K1, Membrane
Settings: cho-k1

SMILES | IC50
ClC(Cl)(Cl)Cl [CARBON TETRACHLORIDE] | Not Active
CO/N=C(\C(=O)N[C@@H]1C(=O)N2C(C(=O)O)=C(COC(C)=O)CS[C@H]12)c1csc(N)n1 [CEFOTAXIME] | Not Active
CNC1=Nc2ccc(Cl)cc2C(c2ccccc2)=[N+]([O-])C1 [CHLORDIAZEPOXIDE] | Not Active
Cc1cc(O)cc(C)c1Cl [CHLOROXYLENOL] | Not Active
CCCNC(=O)NS(=O)(=O)c1ccc(Cl)cc1 [CHLORPROPAMIDE] | Not Active
CC(C)C[C@H]1C(=O)N2CCC[C@H]2[C@]2(O)O[C@](NC(=O)[C@@H]3C=C4c5cccc6[nH]cc(c56)C[C@H]4N(C)C3)(C(C)C)C(=O)N12 [ERGOCRYPTINE] | Not Active

Same assay, conditions: read-out: IC50

SMILES | IC50 [nM]
CN1CCN(C(c2ccccc2)c2ccccc2)CC1 [CYCLIZINE] | 633

Same assay, conditions: read-out: Ki

SMILES | Ki [nM]
CN1CCN(C(c2ccccc2)c2ccccc2)CC1 [CYCLIZINE] | 455

Biological target: Epidermal growth factor receptor (Homo sapiens, UniProt P00533)
Sequence (P00533 whole entry): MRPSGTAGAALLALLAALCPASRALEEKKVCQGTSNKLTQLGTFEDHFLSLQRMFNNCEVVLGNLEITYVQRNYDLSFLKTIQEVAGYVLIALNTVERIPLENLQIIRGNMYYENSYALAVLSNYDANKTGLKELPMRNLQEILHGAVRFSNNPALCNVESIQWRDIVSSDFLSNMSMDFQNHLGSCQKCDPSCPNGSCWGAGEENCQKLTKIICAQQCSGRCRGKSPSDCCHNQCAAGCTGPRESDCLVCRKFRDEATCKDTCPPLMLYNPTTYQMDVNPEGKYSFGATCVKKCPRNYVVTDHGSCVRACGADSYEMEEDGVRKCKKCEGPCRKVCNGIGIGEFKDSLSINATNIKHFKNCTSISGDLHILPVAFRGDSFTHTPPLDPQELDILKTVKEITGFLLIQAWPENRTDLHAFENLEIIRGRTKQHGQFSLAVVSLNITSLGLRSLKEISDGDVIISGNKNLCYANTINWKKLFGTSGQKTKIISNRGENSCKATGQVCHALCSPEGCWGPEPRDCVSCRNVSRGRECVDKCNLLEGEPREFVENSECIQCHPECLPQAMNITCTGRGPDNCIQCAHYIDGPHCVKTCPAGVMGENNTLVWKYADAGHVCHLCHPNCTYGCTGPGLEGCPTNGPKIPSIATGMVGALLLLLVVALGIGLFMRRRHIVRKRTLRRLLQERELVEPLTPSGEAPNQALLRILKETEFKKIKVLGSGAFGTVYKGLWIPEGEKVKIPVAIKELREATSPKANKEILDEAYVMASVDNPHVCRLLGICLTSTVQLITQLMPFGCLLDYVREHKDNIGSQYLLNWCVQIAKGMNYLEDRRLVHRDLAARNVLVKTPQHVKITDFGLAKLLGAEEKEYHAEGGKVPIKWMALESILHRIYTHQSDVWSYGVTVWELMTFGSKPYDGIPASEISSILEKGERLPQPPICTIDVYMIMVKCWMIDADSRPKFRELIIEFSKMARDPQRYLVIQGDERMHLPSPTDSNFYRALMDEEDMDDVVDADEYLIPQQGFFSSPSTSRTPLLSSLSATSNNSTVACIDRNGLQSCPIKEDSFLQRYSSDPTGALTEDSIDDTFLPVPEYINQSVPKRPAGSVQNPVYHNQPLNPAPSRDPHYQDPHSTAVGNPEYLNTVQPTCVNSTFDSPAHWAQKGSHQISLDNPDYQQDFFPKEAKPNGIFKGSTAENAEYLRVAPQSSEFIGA
Test: DRUGMATRIX: Protein Tyrosine Kinase, EGF Receptor enzyme inhibition (substrate: Poly(Glu:Tyr))
Assay type: cell-based, Insect cells
Settings: insect cells; Not Active = under 50% inhibition at 10 µM

SMILES | IC50
ClC(Cl)(Cl)Cl [CARBON TETRACHLORIDE] | Not Active
CO/N=C(\C(=O)N[C@@H]1C(=O)N2C(C(=O)O)=C(COC(C)=O)CS[C@H]12)c1csc(N)n1 [CEFOTAXIME] | Not Active
CNC1=Nc2ccc(Cl)cc2C(c2ccccc2)=[N+]([O-])C1 [CHLORDIAZEPOXIDE] | Not Active
Cc1cc(O)cc(C)c1Cl [CHLOROXYLENOL] | Not Active
CCCNC(=O)NS(=O)(=O)c1ccc(Cl)cc1 [CHLORPROPAMIDE] | Not Active
CN1CCN(C(c2ccccc2)c2ccccc2)CC1 [CYCLIZINE] | Not Active
CC(C)C[C@H]1C(=O)N2CCC[C@H]2[C@]2(O)O[C@](NC(=O)[C@@H]3C=C4c5cccc6[nH]cc(c56)C[C@H]4N(C)C3)(C(C)C)C(=O)N12 [ERGOCRYPTINE] | Not Active

Biological target: Cytochrome P450 2C19 (Homo sapiens, UniProt P33261); note: in other assays of this panel Not Active means under 50% inhibition at 10 µM
Sequence (P33261 whole entry): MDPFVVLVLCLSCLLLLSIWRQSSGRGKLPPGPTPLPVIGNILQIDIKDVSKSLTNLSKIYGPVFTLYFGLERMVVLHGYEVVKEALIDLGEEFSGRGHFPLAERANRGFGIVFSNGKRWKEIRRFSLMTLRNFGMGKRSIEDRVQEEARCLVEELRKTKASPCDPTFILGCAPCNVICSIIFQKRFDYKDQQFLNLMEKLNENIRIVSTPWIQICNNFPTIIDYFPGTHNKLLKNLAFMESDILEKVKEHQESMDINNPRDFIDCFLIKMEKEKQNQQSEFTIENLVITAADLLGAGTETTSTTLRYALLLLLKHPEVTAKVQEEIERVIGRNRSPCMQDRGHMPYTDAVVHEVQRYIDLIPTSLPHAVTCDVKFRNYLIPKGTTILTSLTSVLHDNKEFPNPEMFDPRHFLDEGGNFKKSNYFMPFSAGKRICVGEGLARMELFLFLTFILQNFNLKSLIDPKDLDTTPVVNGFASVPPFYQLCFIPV
Settings: bti-tn-5b1-4

SMILES | IC50 | Ki
ClC(Cl)(Cl)Cl [CARBON TETRACHLORIDE] | Not Active | Not Active
CO/N=C(\C(=O)N[C@@H]1C(=O)N2C(C(=O)O)=C(COC(C)=O)CS[C@H]12)c1csc(N)n1 [CEFOTAXIME] | Not Active | Not Active
CNC1=Nc2ccc(Cl)cc2C(c2ccccc2)=[N+]([O-])C1 [CHLORDIAZEPOXIDE] | Not Active | Not Active
Cc1cc(O)cc(C)c1Cl [CHLOROXYLENOL] | Not Active | Not Active
CCCNC(=O)NS(=O)(=O)c1ccc(Cl)cc1 [CHLORPROPAMIDE] | Not Active | Not Active
CN1CCN(C(c2ccccc2)c2ccccc2)CC1 [CYCLIZINE] | Not Active | Not Active
CC(C)C[C@H]1C(=O)N2CCC[C@H]2[C@]2(O)O[C@](NC(=O)[C@@H]3C=C4c5cccc6[nH]cc(c56)C[C@H]4N(C)C3)(C(C)C)C(=O)N12 [ERGOCRYPTINE] | Not Active | Not Active

Reference: ChEMBL document CHEMBL1909046, “DrugMatrix in vitro pharmacology data”
